# Experimental data reported in US12226410B2, “Methods for enhancing cellular clearance of pathological molecules via activation of the cellular protein ykt6” (NORTHWESTERN UNIVERSITY, priority 2019, dated 2025).
# Tests used:
# [1] = test system: ykt6; test: FTI treatment of DASYN53 mice: membrane-associated ykt6 and SNARE complexes; type: in vivo; settings: DASYN53 mice 12-14 months; i.p. 0.9 mg/kg, 26d; olfactory bulbs, midbrain
# Experimental: FIGS. 7A, 7B, 7C, 7D, and 7E. FTI treatment restores functional membrane-associated ykt6 complexes in DASYN53 mice. 7A) Immunohistochemistry in the midbrain of mice showing ykt6, tyrosine hydroxylase (TH), NeuN, and nuclei (DAPI). Scale bar, 50 μm. 7B) Ykt6 membrane shift analysis in olfactory bulbs of FTI (LNK-754)-injected DASYN53 mice (12-14 months, i.p. 26d, 0.9 mg/kg) (n=5, non-transgenic (nTg)+veh; n=4, DASYN53+veh; n=4 DASYN53+FTI). GAPDH and sec22b are loading controls. 7C) SEC/western blot analysis of midbrains of FTI-treated DASYN53 mice. Inputs are shown on the left. NSE is a loading control. […] (n=3, nTg+veh; n=4, DASYN53+veh; n=4 DASYN53+FTI). 7D) Quantification of complexes from SEC in 7C. 7E) GCase maturation was assessed in midbrain lysates by endo H resistance (n=4, nTg+veh; n=4, DASYN53+veh; n=4 DASYN53+FTI). For all quantifications, each point represents a measurement from an individual animal. Values are the mean+/−SEM, *p<0.05; **p<0.01, ***p<0.001, ANOVA with Tukey's post-hoc test.
# Treatment of C57Bl/6 and DASYN53 mice with farnesyltransferase inhibitors. 3 mo old C57BL6 mice were i.p. injected daily with 0.9 mg/kg LNK-754 that was formulated in a vehicle of 0.5% sodium carboxymethylcellulose and filtered before use for 14 days. DASYN53 mice were i.p. injected daily with 0.9 mg/kg LNK-754 as above. […]
# [2] = test system: human A53T a-syn; test: FTI treatment of DASYN53 mice: soluble and insoluble a-syn in midbrain; type: in vivo; settings: i.p. 0.9 mg/kg, 26d
# Excerpt: FIGS. 8A, 8B, 8C, 8D, 8E, and 8F. FTI treatment enhances GCase activity and reduces pathological a-syn in transgenic mice. 8A) GCase activity in the midbrain of FTI (LNK-754)-treated DASYN53 mice (treated as in FIG. 7) (n=4, veh; n=5, FTI). 8B & 8C) Quantification of soluble and insoluble a-syn from midbrains of FTI-treated DASYN53 mice normalized to total protein (CBB). Syn211 is selective for human (hu) a-syn; C20 and syn303 detect mouse (ms) and hu a-syn, (n=3, nTg+Veh; n=4, DASYN53+veh; n=5 DASYN53+FTI). 8D) Midbrain TH levels were quantified by western blot of FTI-treated DASYN53 mice (n=3). 8E) Body weight of FTI-treated DASYN53 mice (n=9, nTg+Veh; n=7, DASYN53+veh; n=7 DASYN53+FTI). 8F) Rotarod test of FTI-treated DASYN53 mice (n=12, nTg+Veh; n=7, DASYN53+veh; n=7 DASYN53+FTI). Values are the mean+/−SEM. *p<0.05, **p<0.01, and *** p<0.001. Student's t-test, panel A; ANOVA with Tukey's posthoc test, panels B-F.
# Sequential biochemical extraction for the analysis of pathological a-synuclein. Cells were harvested in phosphate buffered saline (PBS), pH 7.4, and pelleted by centrifugation at 400×g for 5 minutes. […] Protein concentration was measured by BCA assay (Pierce). […]
compound,measurement,setting,value
C#Cc1cccc(-c2cc(=O)n(C)c3ccc([C@](O)(c4ccc(Cl)cc4)c4cncn4C)cc23)c1 [LNK-754],reduced membrane-associated ykt6 and SNARE complexes of DASYN53 mice,[1],reversed these effects
same,soluble and insoluble A53T a-syn in midbrain extracts,[2],reduce soluble and insoluble A53T a-syn
